From patent publication US4243679A, “S-(3-Methyl-2-butenyl)cysteine” (priority 1978, dated 1981)
Like-named read-outs stand apart in the source and are kept apart here.

What was measured:
[1] = tested on: tracheobronchial secretion; assay: Secretogogue activity, Mawatari's technique (bronchial elimination of sodium fluoresceine), rat; assay type: in vivo
Description: (§1) The capacity of increasing tracheobronchial secretion was determined by the technique of bronchial elimination of sodium fluoresceine (Mawatari, Kagoshima Daigak Igaku Zasshi, 27, 561 (1976)) on two animal species and by two different administration routes: oral and parenteral.
(§2) Secretogogue activity - Mawatari's technique
(§3) Three dose levels n = 15-40 = number of test animals
(§4) Male animals were used -

[2] = tested on: tracheobronchial secretion; assay: Secretogogial activity, bronchial elimination of sodium fluoresceine, two animal species (overall statement); assay type: in vivo, Mouse; Rat; conditions: oral and parenteral
Description: as §1

[3] = oral; cited from earlier work
mucus = assay: Expectorant activity, Perry-Boyd technique; assay type: in vivo; conditions: rabbit; for % increase with regard to controls: fluid collected
Text: Determination of the expectorant activity was achieved by the technique of collecting mucus of anaesthetized rabbits breathing in conditioned air at body humidity and temperature (Perry and Boyd, J. Pharmacol. Exp. Ther., 23 65(194l)), and measuring the percentage increase of fluid collected in relation to controls.
Expectorant activity. Perry-Boyd technique, in
rabbit. Oral route, n = 12 = number of test

[4] = tested on: tracheobronchial secretion; assay: Secretogogue activity, Mawatari's technique (bronchial elimination of sodium fluoresceine), mouse; assay type: in vivo
Description: as §1, §2, §3, §4

respiratory mucus = assay: Modification of respiratory mucus composition, Giraldez-Gras method; assay type: in vivo, rabbit
Description: By means of an original technique (Giraldez and Gras), XXVI Congr. IUPS, Abstr. 777, Paris 1977)) which allows the collection of abundant samples of mucus on conscious animals and on consecutive days, the amount of eliminated mucus, its biochemical composition and its physico-chemical constants were studied. In addition to the two standards used before, N-acetylcysteine was also administered by topic route. |Modification of mucus composition. Giraldez-Gras Method, in rabbit |Oral route n = 12-30 = number of test animals

[5] = Acute toxicity, two species (overall statement); assay type: in vivo, Rat; Mouse; conditions: oral and intraperitoneal
Text: (§5) The weight of the animals was of 180±20 g for rats and >25 g for mice.

ciliary epithelium = assay: Effect on the ciliary movement: mucus transport time in isolated dog trachea
Text: This vehicle was also used as the blank.
Mucus transport time, in isolated dog trachea

Acute toxicity, mouse = conditions: in vivo
Text: as §5

[6] = Subchronic toxicity in rat (six months); assay type: in vivo; conditions: 100, 300 and 1000 mg/kg/day
Text: ITA 275 was given during six months to rats at the same doses as in the preceding test. The number of animals used was of 100 (.male./.female.=50/50).

[7] = Subacute toxicity in rat (one month); assay type: in vivo; conditions: 100, 300 and 1000 mg/kg/day
Description: In order to study the toxicity of ITA 275 in the rat, this compound was given at doses of 100, 300 and 1000 mg/kg/day during one month, to 100 rats (.male./.female.=50/50)

Acute toxicity, rat = conditions: in vivo
Text: as §5

[8] = rabbit, oral, 500 mg/kg, ***p < 0,005
[9] = ip, confidence limits printed on next line
[10] = ip, confidence limits on next printed line
[11] = rabbit, 0,1 ml/kg sol. 20% (topic)

SMILES | Max. efficiency % secretion increase ([1]; p.o.) | Secretogogial activity (in words) [2] | Max. efficiency % secretion increase ([4]; i.p.) | ED25 ([4]; ip, read-out: ED25) [mg/kg] | ED25 ([4]; p.o.) | Max. efficiency % secretion increase ([4]; p.o.) | ED50 ([1]; po, read-out: ED50) [mg/kg] | % increase with regard to controls (mucus; 500 mg/kg p.o.) | % Increase SH Groups (respiratory mucus; rabbit, oral, 500 mg/kg) | % Increase mucus weight (respiratory mucus; rabbit, oral, 500 mg/kg) | % Increase Muco-proteins (respiratory mucus; [8]) | LD50 (Acute toxicity, mouse; [9]) [mg/kg] | LD50 (Acute toxicity, mouse; po) [mg/kg] | LD50 (Acute toxicity, rat; [10]) [mg/kg] | LD50 (Acute toxicity, rat; po) [mg/kg] | further results
CN(Cc1cc(Br)cc(Br)c1N)C1CCCCC1 [Bisolvon, Bromhexine] | 14,8% | below statistical significance and did not follow a constant dose-effect sequence | 26,0% | 32 | no corre- | 34,7% |  |  |  |  |  |  |  |  |  | ED50 ([1]; p.o.): no corre-; absorption when orally administered (in words) [3]: well adsorbed when orally administered; side effects (in words) [3]: practically no side effects; % increase with regard to controls (mucus; 20 mg/kg p.o.): 20,6%; % increase with regard to controls (mucus; 40 mg/kg p.o.): 38,1%; % Increase Muco-proteins (respiratory mucus; rabbit, oral, 40 mg/kg): 4,9 ± 8,9%; % Increase SH Groups (respiratory mucus; rabbit, oral, 40 mg/kg): 0,3 ± 13,4%; % Increase mucus weight (respiratory mucus; rabbit, oral, 40 mg/kg): -6,1 ± 8,3%; % Increase total proteins (respiratory mucus; rabbit, oral, 40 mg/kg): 3,1 ± 14,4%
CC(C)=CCSC[C@H](N)C(=O)O [ITA 275, S-(3-methyl-2-butenyl)-cysteine] | 57,0% | showed activity | 42,7% | 218 |  | 20,7% | 447 | 135,6% | 29,2 ± 14,4% | 466,1 ± 343,5% | 32,7 ± 14,3% | 2090 | > 4000 | 3100 | > 4000 | acute toxicity (in words) [5]: very low acute toxicity both by oral and intraperitoneal routes; acute toxicity compared with S-carboxymethylcysteine (in words) [5]: even smaller than that of S-carboxymethylcysteine; % increase of ciliary transport time (ciliary epithelium; 10 mM, 0 min, p<0,001): 162,3 ± 13,4%; % increase of ciliary transport time (ciliary epithelium; 10 mM, 10 min, p<0,01): 107,3 ± 21,8%; % increase of ciliary transport time (ciliary epithelium; 10 mM, 20 min): 16,2 ± 7,6%; duration of the increase in transport time (ciliary epithelium; isolated dog trachea): at least 20 min.; Expectorant activity compared with S-carboxymethylcysteine (in words) (mucus; oral route): somewhat more active than S-carboxymethylcysteine; ED25 ([4]; po, read-out: ED25): 611 mg/kg; content of total proteins (in words) (respiratory mucus; rabbit): increase in the content of total proteins; mucolytic property demonstrated by the release of -SH groups (in words) (respiratory mucus; rabbit): does not present the mucolytic property of N-acetylcysteine; mucus elimination (in words) (respiratory mucus; rabbit): great increase in mucus elimination; tolerability [6]: well tolerated; general behaviour [7]: No abnormalities; hematological values [7]: remained normal; liver weight [7]: slight increase in liver weight; weight increase, food and water intake [7]: did not modify either the weight increase or the food and water intake; weight of all other organs [7]: did not undergo weight changes
CC(=O)N[C@@H](CS)C(=O)O [N-acetylcysteine] |  |  |  |  |  |  |  |  |  |  |  |  |  |  |  | % Increase mucus weight (respiratory mucus; [11]): 150,9 ± 30,8%; % Increase total proteins (respiratory mucus; [11]): 491,4 ± 311,1%; % Increase Muco-proteins (respiratory mucus; rabbit, 0,1 ml/kg sol. 20% (topic), **p < 0,01): 2450,3 ± 480,5%; % Increase SH Groups (respiratory mucus; rabbit, 0,1 ml/kg sol. 20% (topic), *p < 0,1): 305,5 ± 102,9%
N[C@@H](CSCC(=O)O)C(=O)O [S-Carboxymethylcysteine, S-carboxymethylcysteine] | 39,3% | below statistical significance and did not follow a constant dose-effect sequence | 22,3% | 764 | no corre- | 6,3% | 1070 | 110,9% | 11,6 ± 34,2% | 16,4 ± 44,9% | 131,9 ± 91,8% | 1780 | > 4000 | 2480 | > 4000 | % Increase total proteins (respiratory mucus; rabbit, oral, 500 mg/kg): 31,7 ± 27,4%
COc1cc2c3cc1Oc1cc(ccc1O)C[C@@H]1c4c(cc(OC)c(O)c4Oc4ccc(cc4)C[C@@H]3N(C)CC2)CC[N+]1(C)C [d-turbocurarine] |  |  |  |  |  |  |  |  |  |  |  |  |  |  |  | % increase of ciliary transport time (ciliary epithelium; 10^-4 g/ml, 0 min): 69,8 ± 12,3%; % increase of ciliary transport time (ciliary epithelium; 10^-4 g/ml, 10 min): 32,3 ± 14,5%
